According to patent publication US5326784A, “Cycloalkylalkylamines which are sigma-receptor ligands and their application in therapy” (Institut de Recherche Jouveinal, priority 1992, dated 1994):
Where a name gives a salt, the structure may show the parent alone. Read-outs that look alike come from different tables or passages of the source.

Key:
[1] = test system: dopaminergic (D2) receptors; settings: state of the art; cited from earlier work
[2] = state of the art; cited from earlier work
rats = settings: state of the art; cited from earlier work
sigma receptors [3] = target: T1, sigma receptors (Rattus norvegicus, UniProt Q9R0C9); test: Sigma binding, SKF 10,047/rat brain membranes (Table 1.B); settings: rat brain membranes
T1 construct: (SKF 10,047/rat brain membranes); from tissue; host or cells: rat brain membranes
Procedure: (§1) Tests of binding to phencyclidine and dopamine D2 receptors were carried out to study the possible undesirable interactions of the compounds of the invention with these receptors. The ligands used are [^3 H]-TCP for phencyclidine and [^3 H]spiroperidol for dopamine.
(§2) The binding experiments are carried out with the sigma ligands (+)-[^3 H]-SKF10,047 and [^3 H]-TCP according to the technique described by Largent B. L. et al. in J. Pharmacol. Exp. Ther. 238, 1986, p 739-748, the principle of which is to place in competition the respective affinities of the product under study and that of a radioactive characteristic ligand for sigma receptors.
(§3) The technique consists in incubating solutions of suitable concentrations of the test products with standard samples of membranes loaded with the labeled ligand, and then in determining the radioactivity of the solution after filtration.
(§4) The results are processed so as to calculate the IC50 of the product under study, which represents the nanomolar concentration of solution capable of inhibiting 50% of the binding of the tritiated ligand to the sigma receptors of the membranes used.
(§5) The SKF 10,047 binding tests are performed with guinea pig or rat brain membranes, those with DTG and TCP are performed with rat brain membranes; the D2 binding tests are performed with guinea pig brain membranes.

sigma receptors [4] = test: Sigma binding test with [3H]-DTG (Table 1.A); settings: guinea pig
Procedure: as §1
(§6) Binding with the ligand [^3 H]-DTG is carried out according to the technique of Weber, E. M. et al., 1986, Proc. Natl. Acad. Sci., 83:8784-8788, and binding with the ligand [^3 H]spiroperidol is carried out according to the technique of Fields, J. Z., Reisine, R. D. and Yamamura, H. 1., Brain Res., 136,578 (1977).
as §3, §4, §5

[5] = target: phencyclidine (PCP) receptors; test: PCP receptor binding test with [3H]-TCP (Table 1.A); settings: guinea pig
Procedure: as §1, §2, §3, §4, §5

sigma receptors [6] = target: T2, sigma receptors (Cavia porcellus, UniProt Q60492); test: Sigma binding test with (+)-[3H]-SKF10,047, guinea pig brain membranes (Table 1.A); settings: read-out: SKF10047 guinea pig IC50
T2 construct: from tissue; host or cells: guinea pig brain membranes
Procedure: as §1, §2, §3, §4, §5

[7] = test system: convulsions induced by electric shocks in rats; test: Protection against convulsions induced by electric shocks in rats; assay type: in vivo, rat (male Sprague Dawley); settings: sc, 0.5 h; rat; subcutaneous; shock 30 minutes after injection; protection in 50% of the animals
Procedure: (§7) Moreover, "in vivo" tests enabled the capacity of the compounds of the invention (I) to inhibit convulsions induced by electric shocks in rats, and also their capacity to inhibit gastroduodenal ulcers caused by administration of cysteamine, to be detected.
a) Convulsions in rats: electric shock
The psychotropic properties of the compounds (I) were determined by the protection against convulsions induced by electric shocks in rats.
The emission of an electric shock causes a convulsive state in the animal, characterized by the convulsive extension of front and rear legs.
In practice, the study is carried out on groups of 10 male Sprague Dawley rats weighing approximately 100 grams, to which the product under study is administered subcutaneously in aqueous solution on the basis of 0.5 ml per 100 grams of the animal's body weight.
An electric shock is then produced 30 minutes after the injection by means of a UGO BASILE ECT UNIT 7801 electric shock apparatus (APELEX): frequency 50 cps/sec, pulse width 0.6 ms, shock duration 1 sec, intensity 90 mA. […] Each animal then receives a score, which is equal to 1 for the presence of tonic convulsions and zero for the absence of tonic convulsions. […] The results are compared statistically between the control group and the treated group by the test of Fisher R. A. and Yates F. (Biometrika, 1948, 35-149) and the ED50 (dose of the test compound giving rise to protection in 50% of the animals) is calculated by the method of Litchfield J. T. and Wilcoxon F. (J. Pharmacol. Exp. Therap., 1949, 96-99).

dopamine D2 receptors = target: T3, dopamine D2 receptors (Rattus norvegicus, UniProt P61169); test: Dopamine D2 binding test with [3H]spiroperidol (Table 1.A)
T3 construct: from tissue; guinea pig by b443
Procedure: as §1, §6, §3, §4, §5

[8] = test system: cysteamine-induced ulcers; test: Inhibition of cysteamine-induced gastroduodenal ulcers in rats; assay type: in vivo, rat (male Sprague Dawley); settings: rat, 50% inhibition of ulceration, read-out: Cysteamine ulcer ED50
Description: as §7
b) Cysteamine-induced ulcer
The activity of the compounds of the invention with respect to the gastrointestinal tract was shown in rats by their capacity to inhibit gastroduodenal ulcers caused by administration of cysteamine. (Robert and al., Digestion, 1974, 11, 199-211).
In practice, the study is carried out according to the method described by Selye, H. and Szabo, S., Nature, 1973, 244:458-459 on groups of male Sprague Dawley rats weighing 200 g on average, to which a solution of cysteamine hydrochloride is administered by subcutaneous injection on the basis of 400 mg/kg, […] the ulcerogenic agent. Eighteen hours later, the rats are sacrificed by elongation, and the stomach and duodenum are removed, rinsed with physiological solution and pinned onto a card. The presence of ulcers of the antropyloroduodenal region is looked for, and their area, expressed in mm^2, is evaluated by multiplying the two principal perpendicular axes of the lesion. Statistical analysis of the results is carried out using Student's test for the ulcerated areas in comparison with a control group. The results are presented in Table 2, and expressed as an ED50 of ulceration scores, which are the effective doses of product in (mg/kg) for a 50% inhibition of the cysteamine-induced ulcers.

[9] = Stability remark on isolated product; assay type: physicochemical; settings: free base, after Stage 3
[10] = test system: dopaminergic D2 receptors; settings: state of the art; cited from earlier work
[11] = test system: phencyclidine (PCP) receptors; settings: state of the art; cited from earlier work

T2 sequence (Q60492 whole entry): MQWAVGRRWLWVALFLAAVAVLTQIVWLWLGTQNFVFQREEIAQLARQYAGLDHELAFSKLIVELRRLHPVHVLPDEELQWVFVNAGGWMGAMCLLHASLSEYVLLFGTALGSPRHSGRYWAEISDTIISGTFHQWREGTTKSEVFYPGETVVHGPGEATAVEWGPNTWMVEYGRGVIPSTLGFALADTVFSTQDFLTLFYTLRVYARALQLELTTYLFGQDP
T1 sequence (Q9R0C9 whole entry): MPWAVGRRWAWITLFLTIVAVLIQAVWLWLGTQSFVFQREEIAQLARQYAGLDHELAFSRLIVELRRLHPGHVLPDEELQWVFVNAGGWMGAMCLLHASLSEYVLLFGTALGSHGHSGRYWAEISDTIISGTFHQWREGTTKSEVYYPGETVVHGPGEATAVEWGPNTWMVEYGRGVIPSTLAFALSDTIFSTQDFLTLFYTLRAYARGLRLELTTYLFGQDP
T3 sequence (P61169 whole entry): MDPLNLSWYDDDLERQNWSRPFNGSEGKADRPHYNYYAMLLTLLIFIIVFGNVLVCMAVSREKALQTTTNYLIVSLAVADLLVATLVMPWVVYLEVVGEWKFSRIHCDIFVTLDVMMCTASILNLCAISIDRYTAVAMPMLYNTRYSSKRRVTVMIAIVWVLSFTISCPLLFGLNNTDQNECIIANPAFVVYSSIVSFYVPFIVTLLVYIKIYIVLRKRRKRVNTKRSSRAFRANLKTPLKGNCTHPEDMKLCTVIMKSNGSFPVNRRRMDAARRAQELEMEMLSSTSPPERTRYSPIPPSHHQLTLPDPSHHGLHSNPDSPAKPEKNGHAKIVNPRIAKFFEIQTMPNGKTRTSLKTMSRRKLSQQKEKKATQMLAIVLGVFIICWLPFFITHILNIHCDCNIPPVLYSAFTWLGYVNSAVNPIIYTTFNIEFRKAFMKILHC

CCCN1CCC[C@H](c2cccc(O)c2)C1 [(+)-3-PPP, (+)-3-(3-hydroxyphenyl)-N-(1-propyl)piperidine]
affinity for dopaminergic (D2) receptors [1]: strong affinity for dopaminergic (D2) receptors

Cc1ccccc1NC(=N)Nc1ccccc1C [DTG, 1,3-di-o-tolylguanidine]
crossing the blood-brain barrier [2]: difficulty in crossing the blood-brain barrier
symptoms in rats (rats): causes symptoms in rats similar to those of PCP

CN(CCC1Cc2ccccc2C1=O)CC1CC1 (centres unmarked) [EXAMPLE 1, 2-[2-[(N-Cyclopropylmethyl-N-Methyl)Amino]Ethyl]-1-Oxo-1,2-Dihydroindene Hydrochloride]
IC50 (sigma receptors [3]): 10.7 nM

CN(CCC1CCc2ccccc2C1=O)CC1CC1 (centres unmarked) [EXAMPLE 2, 2-[2-[(N-Cyclopropylmethyl-N-Methyl)Amino]Ethyl]-1-Oxo-1,2,3,4-Tetrahydronaphthalene Hydrochloride]
IC50 (sigma receptors [4]): 52 nM
IC50 [5]: > 10 µM
IC50 (sigma receptors [6]): 12 nM
ED50 [7]: 0.1 mg/kg
IC50 (dopamine D2 receptors): > 10000 nM
IC50 (sigma receptors [3]): 19.4 nM

CN(CCC1CCc2ccccc2C1=O)CC1CCC1 (centres unmarked) [EXAMPLE 3, 2-[2-[(N-cyclobutylmethyl-N-methyl)amino]ethyl]-1-oxo-1,2,3,4-tetrahydronaphthalene]
IC50 [5]: > 10 µM
IC50 (sigma receptors [6]): 5.24 nM
ED50 ([8]; intraperitoneal route (ip)): 5.7 mg/kg
ED50 ([8]; oral route (po)): 8.6 mg/kg
ED50 [7]: 0.9 mg/kg
IC50 (dopamine D2 receptors): 1170 nM
IC50 (sigma receptors [3]): 11.1 nM

CN(CCC1CC1)CCC1CCc2ccccc2C1=O (centres unmarked) [EXAMPLE 4, 2-[2-[(N-Cyclopropylethyl-N-Methyl)Amino]Ethyl]-1-oxo-1,2,3,4-Tetrahydronaphthalene Hydrochloride]
IC50 (sigma receptors [4]): 56 nM
IC50 [5]: > 10 µM
IC50 (sigma receptors [6]): 2.83 nM
ED50 ([8]; oral route (po)): 15.6 mg/kg
ED50 [7]: 1 mg/kg
IC50 (dopamine D2 receptors): 1910 nM
IC50 (sigma receptors [3]): 10.6 nM

CN(CCC1CCc2ccccc2C1=O)CC1CCCCC1 (centres unmarked) [EXAMPLE 5, 2-[2-[(N-Cyclohexylmethyl-N-Methyl)Amino]-Ethyl]-1-Oxo-1,2,3,4-Tetrahydronaphthalene Hydrochloride]
IC50 (sigma receptors [3]): 8.2 nM

COc1ccc2c(c1)CCC(CCN(C)CC1CCCCC1)C2=O (centres unmarked) [EXAMPLE 6, 2-[2-[(N-Cyclohexylmethyl-N-Methyl)Amino]-Ethyl]6-Methoxy-1-oxo-1,2,3,4-Tetrahydronaphthalene Hydrochloride]
IC50 (sigma receptors [3]): 8 nM

O=C1c2ccccc2CCC1CCNC1CC1 (centres unmarked) [EXAMPLE 7, 2-[2-(N-Cyclopropylamino)Ethyl]-1-Oxo-1,2,3,4-Tetrahydronaphthalene]
stability [9]: unstable

CCCN(CCC1CCc2ccccc2C1=O)CC1CC1 (centres unmarked) [EXAMPLE 9, 2-[2-[(N-cyclopropylmethyl-N-propyl)amino]ethyl]-1-oxo-1,2,3,4-tetrahydronaphthalene]
IC50 (sigma receptors [3]): 10.4 nM

CN(CCC1CCCc2ccccc2C1=O)CC1CC1 (centres unmarked) [EXAMPLE 10, 2-[2-[(N-Cyclopropylmethyl-N-Methyl)Amino]Ethyl]-1-Benzosuberone Hydrochloride]
ED50 [7]: 1.6 mg/kg
IC50 (sigma receptors [3]): 5.7 nM

CN(CCC1CCCc2ccccc2C1=O)CC1CCCCC1 (centres unmarked) [EXAMPLE 11, 2-[2-[(N-Cyclohexylmethyl-N-Methyl)Amino]-Ethyl]-1-Benzosuberone Hydrochloride]
IC50 (sigma receptors [3]): 6.6 nM

CN(CCC1CCc2ccccc2C12OCCO2)CC1CC1 (centres unmarked) [EXAMPLE 12, 2-[2-[(N-cyclopropylmethyl-N-methyl)amino]ethyl]-1-[spiro(cyclodioxyethyl)]-1,2,3,4-tetrahydro naphhtalene]
ED50 ([8]; intraperitoneal route (ip)): 11.6 mg/kg
ED50 [7]: 1.7 mg/kg
IC50 (sigma receptors [3]): 30.5 nM

CN(CCC1CCc2ccccc2C1=NO)CC1CCC1 (centres unmarked) [EXAMPLE 13, 2-[2-[(N-Cyclobutylmethyl-N-Methyl)Amino]Ethyl]-1-Hydroxyimino-1,2,3,4Tetrahydronaphthalene]
IC50 (sigma receptors [3]): 7.7 nM

CN(CCC1COc2ccccc2C1=O)CC1CC1 (centres unmarked) [EXAMPLE 14, 3-[2-[(N-Cyclopropylmethyl-N-Methyl)Amino]-Ethyl]4-Chromanone Hydrchloride]
ED50 [7]: 3.5 mg/kg
IC50 (sigma receptors [3]): 13.7 nM

CN(CCC1COc2ccccc2C1=O)CC1CCCCC1 (centres unmarked) [EXAMPLE 15, 3-[2-[(N-cyclohexylmethyl-N-methyl)amino]ethyl]-4-chromanone]
IC50 (sigma receptors [3]): 5.7 nM

CN(CCC1COc2ccc(F)cc2C1=O)CC1CCCCC1 (centres unmarked) [EXAMPLE 16, 3-[2-[(N-Cyclohexylmethyl-N-Methyl)Amino]-Ethyl]-6-Fluoro-4-Chromanone Hydrochloride]
IC50 (sigma receptors [3]): 6.2 nM

C=CCN(C)CCC1CCc2ccccc2C1=O (centres unmarked) [EXAMPLE 17, 2-[2-[(N-Allyl-N-Methyl)Amino]Ethyl]-1-Oxo-1,2,3,4-Tetrahydronaphthalene Hydrochloride]
IC50 (sigma receptors [3]): 13.3 nM

O=C(CCCN1CCC(O)(c2ccc(Cl)cc2)CC1)c1ccc(F)cc1 [Haloperidol, 4-[4-(p-chlorophenyl)-4-hydroxypiperidino]-4'-fluorobutyrophenone]
extrapyramidal disorders [10]: can induce extrapyramidal disorders of the cataleptic type
affinity for dopaminergic (D2) receptors [1]: strong affinity for dopaminergic D2 receptors

C=CCN1CCC2(C)c3cc(O)ccc3CC1C2C (centres unmarked) [SKF 10047, N-allylnormetazocine]
affinity for phencyclidine (PCP) receptors [11]: strong affinity for phencyclidine (PCP) receptors

C[C@H]1[C@H]2Cc3ccc(O)cc3[C@]1(C)CCN2CC1CC1 [cyclazocine]
affinity for phencyclidine (PCP) receptors [11]: strong affinity for phencyclidine (PCP) receptors
